Entries after “also recorded” stand apart in the source; their conditions may differ.
Assays:
[1] = test system: RTV-302, patient 97-302 (RT K103N, I135M, T200A, P225H); assay: Phenotypic susceptibility assay (patient RTV); assay type: cell-based, HIV-1; details: patient virus RTV-302
Experimental: (§1) The resistance test vectors containing a functional luciferase gene cassette were constructed and host cells were transfected with the resistance test vector DNA. The resistant test vectors contained patient-derived reverse transcriptase and protease sequences that were either susceptible or resistant to the antiretroviral agents, such as nucleoside reverse transcriptase inhibitors, non-nucleoside reverse transcriptase inhibitors and protease inhibitors. […] The IC50 values were determined by plotting percent drug inhibition vs. log10 drug concentration.
(§2) Host cells were seeded in 10-cm-diameter dishes and were transfected several days after plating with resistance test vector plasmid DNA and the envelope expression vector. […] HIV capsid protein (p24) levels in the harvested cell culture media were determined by an EIA method as described by the manufacturer (SIAC; Frederick, Md.). […] The inhibitory effect of the drug was determined using the following equation: % luciferase inhibition=1−(RLUluc [drug]÷RLUluc)×100 where RLUluc [drug] is the relative light unit of luciferase activity in infected cells in the presence of drug and RLUluc is the Relative Light Unit of luciferase activity in infected cells in the absence of drug. […]
A resistance test vector was constructed as described in example 1 from a patient sample designated as 97-302. […] An IC50 was determined for each drug tested. […]

[2] = test system: RTV-300, patient 97-300 (RT K32N, M184V, Y188L); assay: Phenotypic susceptibility assay (patient RTV); assay type: cell-based, HIV-1; details: patient RTV pool
Experimental: as §1, §2

[3] = test system: RTV-757, patient 98-757 (RT V106A, V108I, V189L); assay: Phenotypic susceptibility assay (patient RTV); assay type: cell-based, HIV-1; details: patient RTV pool
From the text: (§3) The resistance test vectors containing a functional luciferase gene cassette were constructed and host cells were transfected with the resistance test vector DNA. The resistant test vectors contained patient-derived reverse transcriptase and protease sequences that were either susceptible or resistant to the antiretroviral agents, such as nucleoside reverse transcriptase inhibitors, non-nucleoside reverse transcriptase inhibitors and protease inhibitors. The resistance test vector viral particles produced by transfecting the resistance test vector DNA into host cells, either in the presence or absence of protease inhibitors, were used to infect target host cells grown either in the absence of NRTI or NNRTI or in the presence of increasing concentrations of the drug. The amount of luciferase activity produced in infected target host cells in the presence of drug was compared to the amount of luciferase produced in infected target host cells in the absence of drug. Drug resistance was measured as the amount of drug required to inhibit by 50% the luciferase activity detected in the absence of drug (inhibitory concentration 50%, IC50). The IC50 values were determined by plotting percent drug inhibition vs. log10 drug concentration.
(§4) Host cells were seeded in 10-cm-diameter dishes and were transfected several days after plating with resistance test vector plasmid DNA and the envelope expression vector. Transfections were performed using a calcium-phosphate precipitation procedure. The cell culture media containing the DNA precipitate was replaced with fresh medium, from one to 24 hours, after transfection. Cell culture media containing resistance test vector viral particles was harvested one to four days after transfection and was passed through a […] filter before being stored at […]. HIV capsid protein (p24) levels in the harvested cell culture media were determined by an EIA method as described by the manufacturer (SIAC; Frederick, Md.). Before infection, target cells (293 and 293/T) were plated in cell culture media. Control infections were performed using cell culture media from mock transfections (no DNA) or transfections containing the resistance test vector plasmid DNA without the envelope expression plasmid. One to three or more days after infection the media was removed and cell lysis buffer (Promega) was added to each well. Cell lysates were assayed for luciferase activity (FIG. 3). The inhibitory effect of the drug was determined using the following equation: % luciferase inhibition=1−(RLUluc [drug]÷RLUluc)×100 where RLUluc [drug] is the relative light unit of luciferase activity in infected cells in the presence of drug and RLUluc is the Relative Light Unit of luciferase activity in infected cells in the absence of drug. IC50 values were obtained from the sigmoidal curves that were generated from the data by plotting the percent inhibition of luciferase activity vs. the log10 drug concentration. The drug inhibition curves are shown in (FIG. 3).
A resistance test vector was constructed as described in Example 1 from a patient sample designated 98-1033. […]

[4] = test system: RTV-1058 clone 5 (RT L100I, K103N); assay: Phenotypic susceptibility assay (patient RTV clone); assay type: cell-based, HIV-1
From the text: as §3, §4
A resistance test vector was constructed as described in Example 1 from a patient sample designated 98-1058. This patient had been previously treated with ddI, d4T, AZT, 3TC, ddC and abacavir (NRTIs), indinavir and amprenavir (PRIs) and nevirapine (an NNRTI). Isolation of viral RNA and RT/PCR was used to generate a patient derived segment that comprised viral sequences coding for all of RP and aa 1-313 of RT. The PDS was inserted into an indicator gene viral vector to generate a resistance test vector designated RTV-1058. Individual clones of RTV-1058 were selected and were then tested in a phenotypic assay to determine accurately and quantitatively the level of susceptibility to a panel of anti-retroviral drugs. The panel of antiretroviral drugs comprised members of the classes known as NRTIs (AZT, 3TC, d4T, kkI an ddC), NNRTIs (delavirdine and nevirapine), an PRIs (indinavir, nelfinavir, ritonavir, and saquinavir). […]

[5] = test system: patient 487 virus (RT M184V, K103N); assay: Phenotypic susceptibility assay (patient virus); assay type: cell-based, HIV; details: patient 487, FIG. 4
From the text: Phenotypic drug susceptibility and resistance profile: patient 487. […] This is an example of the first pattern of NNRTI susceptibility/resistance.
as §1, §2

[6] = target: RT with P236L substitution (Human immunodeficiency virus type 1 group M subtype B, UniProt P04585, P823L); details: P236L substitution sensitizes RT; cited from earlier work

Row | Compound | change in susceptibility [1] | decrease in susceptibility (fold, IC50) [2] | decrease in susceptibility (fold, IC50) [3] | loss of susceptibility (fold, IC50) [4] | change in susceptibility [5] | reduction of IC50 [6]
1 | CC(C)Nc1cccnc1N1CCN(C(=O)c2cc3cc(NS(C)(=O)=O)ccc3[nH]2)CC1 [delavirdine] | modest decrease; also recorded: reduced susceptibility | 25 fold | 10 fold | 250 fold | increased resistance | 
2 | Cc1ccnc2c1NC(=O)c1cccnc1N2C1CC1 [nevirapine] | significant decrease; also recorded: reduced susceptibility | greater than 800 fold | greater than 800 fold | 120 fold | increased resistance | 7- to 10 fold

Source: US7037644B1, “Means and methods for monitoring non-nucleoside reverse transcriptase inhibitor antiretroviral therapy and guiding therapeutic decisions in the treatment of HIV/AIDS” (ViroLogic, Inc., priority 1998, dated 2006)
